Results published in patent US7208517B1, “Endothelin antagonists” (Abbott Labortories, priority 1994, dated 2007).

Target: T1, ETA Receptor (Rattus norvegicus, UniProt P26684)
T1 construct: endogenous in cells; host or cells: MMQ rat pituitary cells (membranes)
T1 sequence (P26684 21-426): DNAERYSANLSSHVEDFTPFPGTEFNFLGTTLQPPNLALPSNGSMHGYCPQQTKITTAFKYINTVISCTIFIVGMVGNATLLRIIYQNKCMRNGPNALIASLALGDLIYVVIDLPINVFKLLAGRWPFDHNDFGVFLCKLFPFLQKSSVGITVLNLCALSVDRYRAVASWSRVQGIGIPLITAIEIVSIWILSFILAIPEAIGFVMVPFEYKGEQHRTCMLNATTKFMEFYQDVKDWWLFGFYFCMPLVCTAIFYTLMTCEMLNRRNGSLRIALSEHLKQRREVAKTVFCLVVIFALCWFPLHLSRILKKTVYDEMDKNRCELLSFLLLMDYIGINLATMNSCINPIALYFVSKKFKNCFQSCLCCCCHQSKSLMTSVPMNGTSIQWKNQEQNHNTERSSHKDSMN
Test: [125I]ET-1 binding to membranes from MMQ cells (ETA receptor binding assay, Table 4)
Conditions: test compound at 1 μM; 0.1 nM [125I]ET-1, MMQ cell membranes, 4 hours at 25° C.
Description: Preparation of Membranes from MMQ Cells:
MMQ [MacLeod/MacQueen/Login cell line (prolactin secreting rat pituitary cells)] cells from 150 mL culture flasks were collected by centrifugation (1000×g for 10 min) and then homogenized in 25 mL of 10 mM Hepes (pH 7.4) containing 0.25 M sucrose and protease inhibitors [3 mM EDTA, 0.1 mM PMSF, and 5 μg/mL Pepstatin A] by a micro ultrasonic cell disrupter (Kontes). The mixture was centrifuged at 1000×g for 10 min. The supernatant was collected and centrifuged at 60,000×g for 60 min. The precipitate was resuspended in 20 mM Tris, pH 7.4 containing the above protease inhibitors and centrifuged again. The final pellet was resuspended in 20 mM Tris, pH 7.4 containing protease inhibitors and stored at −80° C. until used. Protein content was determined by the Bio-Rad dye-binding protein assay.
Binding assays were performed in 96-well microtiter plates pretreated with 0.1% BSA. […] After incubation, unbound ligands were separated from bound ligands by a vacuum filtration method using glass-fiber filter strips in PHD cell harvesters (Cambridge Technology, Inc., MA), followed by washing the filter strips with saline (1 mL) for three times. Nonspecific binding was determined in the presence of 1 μM ET-1.

Compound | % Inhibition of ETA at 1 μM
CCN(CC)C(=O)CN1CC(c2ccc3c(c2)OCO3)C(C(=O)O)C1c1ccc(OC)cc1 (stereo not drawn) [Example 44, trans,trans-2-(4-Methoxyphenyl)-4-(1,3-benzodioxol-5-yl)-1-(N,N-diethylaminocarbonylmethyl)-pyrrolidine-3-carboxylic acid] | 91.3%
COc1ccc(C2C(C(=O)O)C(c3ccc4c(c3)OCO4)CN2CC(=O)N(C)c2ccccc2)cc1 (stereo not drawn) [Example 45, trans,trans-2-(4-Methoxyphenyl)-4-(1,3-benzodioxol-5-yl)-1-(N-methyl-N-phenylaminocarbonylmethyl)-pyrrolidine-3-carboxylic acid] | 85.4%
CCCN(C)C(=O)CN1CC(c2ccc(OC)c(OC)c2)C(C(=O)O)C1c1ccc(OC)cc1 (stereo not drawn) [Example 54, trans,trans-2-(4-Methoxyphenyl)-4-(3,4-dimethoxyphenyl)-1-(N-methyl-N-propyl)aminocarbonylmethyl)-pyrrolidine-3-carboxylic acid] | 64.6%
CC[S+]([O-])CCN1CC(c2ccc3c(c2)OCO3)C(C(=O)O)C1c1ccc(OC)cc1 (stereo not drawn) [Example 57, trans,trans-2-(4-Methoxyphenyl)-4-(1,3-benzodioxol-5-yl)-1-(2-(ethylsulfinyl)ethyl)-pyrrolidine-3-carboxylic acid] | 93.2%
COc1ccc(C2C(C(=O)O)C(c3ccc4c(c3)OCO4)CN2CCN(C)C(=O)C(C)C)cc1 (stereo not drawn) [Example 61C, trans,trans-2-(4-Methoxyphenyl)-4-(1,3-benzodioxol-5-yl)-1-(2-(N-methyl-N-isobutyrylamino)ethyl)-pyrrolidine-3-carboxylic acid] | 90.6%
CCCCC(=O)CN1CC(c2ccc3c(c2)OCO3)C(C(=O)O)C1c1ccc(OC)cc1 (stereo not drawn) [Example 72C, trans,trans-2-(4-Methoxyphenyl)-4-(1,3-benzodioxol-5-yl)-1-(valerylmethyl)-pyrrolidine-3-carboxylic acid] | 80.7%
CCCCCC1C(C(=O)O)C(c2ccc3c(c2)OCO3)CN1CC(=O)N(CCCC)CCCC (stereo not drawn) [Example 92C, trans,trans-2-(Pentyl)-4-(1,3-benzodioxol-5-yl)-1-(N,N-di(n-butyl)aminocarbonylmethyl)pyrrolidine-3-carboxylic acid] | 107.4%
CCCCCC1C(C(=O)O)C(c2ccc3c(c2)OCO3)CN1CCN(CCC)S(=O)(=O)CCC (stereo not drawn) [Example 93C, trans,trans-2-(Pentyl)-4-(1,3-benzodioxol-5-yl)-1-[2-(N-propyl-N-propylsulfonylamino)ethyl]pyrrolidine-3-carboxylic acid] | 59.2%
CCCN(CCN1CC(c2ccc3c(c2)OCO3)C(C(=O)O)C1c1ccc(OC)cc1)S(=O)(=O)CCOC (stereo not drawn) [Example 125, trans,trans-1-(2-(N-Propyl-N-(2-methoxyethylsulfonyl)amino)ethyl)-2-(4-methoxyphenyl)-4-(1,3-benzodioxol-5-yl)pyrrolidine-3-carboxylic acid] | 97.2%
CCCN(CCN1CC(c2ccc3c(c2)OCO3)C(C(=O)O)C1c1ccc(OC)cc1)S(=O)(=O)c1cccc2c(N(C)C)cccc12 (stereo not drawn) [Example 127, trans,trans-1-(2-(N-Propyl-N-(5-dimethylamino-1-naphthylsulfonyl)amino)ethyl)-2-(4-methoxyphenyl)-4-(1,3-benzodioxol-5-yl)pyrrolidine-3-carboxylic acid] | 91.4%
CCCN(CCN1CC(c2ccc3c(c2)OCO3)C(C(=O)O)C1c1ccc(OC)cc1)S(=O)(=O)CC (stereo not drawn) [Example 128, trans,trans-1-(2-(N-Propyl-N-(ethylsulfonyl)amino)ethyl)-2-(4-methoxyphenyl)-4-(1,3-benzodioxol-5-yl)pyrrolidine-3-carboxylic acid] | 95.4%
CCCN(CCN1CC(c2ccc3c(c2)OCO3)C(C(=O)O)C1c1ccc(OC)cc1)S(=O)(=O)c1ccc(C)cc1 (stereo not drawn) [Example 129, trans,trans-1-(2-(N-Propyl-N-(4-methylbenzenesulfonyl)amino)ethyl)-2-(4-methoxyphenyl)-4-(1,3-benzodioxol-5-yl)pyrrolidine-3-carboxylic acid] | 100.1%
CCCCN(CCCC)C(=O)CN1CC(c2ccc3c(c2)OCO3)C(C(=O)O)C1c1cccnc1 (stereo not drawn) [Example 130, trans,trans-1-(N,N-Di(n-butyl)aminocarbonylmethyl)-2-(3-pyridyl)-4-(1,3-benzodioxol-5-yl)pyrrolidine-3-carboxylic acid] | 91.0%
CCCCS(=O)(=O)N(CCC)CCN1CC(c2ccc3c(c2)OCO3)C(C(=O)O)C1c1ccc(OC)cc1 (stereo not drawn) [Example 131, trans,trans-1-(2-(N-Propyl-N-(n-butylsulfonyl)amino)ethyl)-2-(4-methoxyphenyl)-4-(1,3-benzodioxol-5-yl)pyrrolidine-3-carboxylic acid] | 89.5%

Second part, the compound after the results:

% Inhibition of ETA at 1 μM | Compound
84.0% | CCCN(C)C(=O)CN1CC(c2ccc3c(c2)CCO3)C(C(=O)O)C1c1ccc(OC)cc1 (stereo not drawn) [Example 52, trans,trans-2-(4-Methoxyphenyl)-4-(2,3-dihydrobenzofuran-5-yl)-1-(N-methyl-N-propyl)aminocarbonylmethyl)-pyrrolidine-3-carboxylic acid]
50.5% | CCCN(C)C(=O)CN1CC(c2cccc(OC)c2)C(C(=O)O)C1c1ccc(OC)cc1 (stereo not drawn) [Example 55, trans,trans-2-(4-Methoxyphenyl)-4-(3-methoxyphenyl)-1-(N-methyl-N-propyl)aminocarbonylmethyl)-pyrrolidine-3-carboxylic acid]
34.3% | CCCN(C)C(=O)CN1CC(c2ccc3ccccc3c2)C(C(=O)O)C1c1ccc(OC)cc1 (stereo not drawn) [Example 56, trans,trans-2-(4-Methoxyphenyl)-4-(2-naphthyl)-1-(N-methyl-N-propyl)aminocarbonylmethyl)-pyrrolidine-3-carboxylic acid]
37.4% | COc1ccc(C2C(C(=O)O)C(c3ccc4c(c3)OCO4)CN2C/C=C/CC(C)C)cc1 (stereo not drawn) [Example 69D, trans,trans-2-(4-Methoxyphenyl)-4-(1,3-benzodioxol-5-yl)-1-N-(trans-5-methylhex-2-enyl)-pyrrolidine-3-carboxylic acid]
96.3% | COc1ccc(C2C(C(=O)O)C(c3ccc4c(c3)OCO4)CN2CC(=O)N(C)Cc2ccc(OC)c(OC)c2)cc1 (stereo not drawn) [Example 73C, trans,trans-2-(4-Methoxyphenyl)-4-(1,3-benzodioxol-5-yl)-1-(N-(3,4-dimethoxybenzyl)-N-methylaminocarbonylmethyl)pyrrolidine-3-carboxylic acid]
89.7% | CCCN(CCN1CC(c2ccc3c(c2)OCO3)C(C(=O)O)C1c1ccc(OC)cc1)S(=O)(=O)c1ccc(C)cc1C (stereo not drawn) [Example 123, trans,trans-1-(2-(N-Propyl-N-(2,4-dimethylbenzenesulfonyl)amino)ethyl)-2-(4-methoxyphenyl)-4-(1,3-benzodioxol-5-yl)pyrrolidine-3-carboxylic acid]
91.0% | CCCN(CCN1CC(c2ccc3c(c2)OCO3)C(C(=O)O)C1c1ccc(OC)cc1)S(=O)(=O)CCCCl (stereo not drawn) [Example 124, trans,trans-1-(2-(N-Propyl-N-(3-chloropropylsulfonyl)amino)ethyl)-2-(4-methoxyphenyl)-4-(1,3-benzodioxol-5-yl)pyrrolidine-3-carboxylic acid]
91.7% | CCCN(CCN1CC(c2ccc3c(c2)OCO3)C(C(=O)O)C1c1ccc(OC)cc1)S(=O)(=O)CCOCC (stereo not drawn) [Example 126, trans,trans-1-(2-(N-Propyl-N-(2-ethoxyethylsulfonyl)amino)ethyl)-2-(4-methoxyphenyl)-4-(1,3-benzodioxol-5-yl)pyrrolidine-3-carboxylic acid]

Same assay, conditions: test compound at 1 μM; 0.1 nM [125I]ET-1, MMQ cell membranes, 4 hours at 25° C.; read-out: % Inhibition of ETA at 1 μM

inhibition at 1 µM | Compound
95.3% | CCC[C@H](C(=O)N(CCC)CCC)N1C[C@@H](c2ccc3c(c2)OCO3)[C@@H](C(=O)O)[C@@H]1c1ccc(OC)cc1 [Example 75C, (2R,3R,4R)-2-(4-Methoxyphenyl)-4-(1,3-benzodioxol-5-yl)-1-((1R)-1-(N,N-dipropylaminocarbonyl)-1-butyl)pyrrolidine-3-carboxylic acid]
93.1% | CCC[C@H](C(=O)N(CCC)CCC)N1C[C@H](c2ccc3c(c2)OCO3)[C@H](C(=O)O)[C@H]1c1ccc(OC)cc1 [Example 76, (2S,3S,4S)-2-(4-Methoxyphenyl)-4-(1,3-benzodioxol-5-yl)-1-((1R)-1-(N,N-dipropylaminocarbonyl)-1-butyl)pyrrolidine-3-carboxylic acid]
